Experimental data from patent US20210128534A1, “DRUG DELIVERY SYSTEMS” (YISSUM RESEARCH DEVELOPMENT COMPANY OF THE HEBREW …, priority 2018, published 2021).

Key:
[1] = Dexamethasone palmitate solubility in FDA approved oils for ophthalmic use; type: physicochemical
Protocol: 8.1 Solubility in FDA Approved Oils for Ophthalmic Use
Dexamethasone palmitate solubility was assessed in mineral oil, castor oil and MCT.

[2] = Reconstitution stability of lyophilized tacrolimus NCs in isotonic aqueous solution; type: physicochemical; details: room temperature
[3] = cited from earlier work

CCCCCCCCCCCCCCCC(=O)OCC(=O)[C@@]1(O)[C@H](C)C[C@H]2[C@@H]3CCC4=CC(=O)C=C[C@]4(C)[C@@]3(F)[C@@H](O)C[C@@]21C [Dexamethasone, Dexamethasone palmitate]
Concentration ([1]; solubility in Castor oil): 33600 µg/mL
Concentration ([1]; solubility in MCT): 46600 µg/mL
Concentration ([1]; solubility in Mineral oil): 1300 µg/mL

C=CC[C@@H]1/C=C(\C)C[C@H](C)C[C@H](OC)[C@H]2O[C@@](O)(C(=O)C(=O)N3CCCC[C@H]3C(=O)O[C@H](/C(C)=C/[C@@H]3CC[C@@H](O)[C@H](OC)C3)[C@H](C)[C@@H](O)CC1=O)[C@H](C)C[C@@H]2OC [Tacrolimus]
time the active remained stable in aqueous formulation [2]: at least 2 weeks

Cyclosporine A [CsA]
skin levels reported to be active for psoriasis ([3]; equivalent to 1 ng/mg): 1000 ng/g
CsA concentration associated with good clinical response ([3]; human patients with psoriasis, 12-hour trough): higher than 100 ng/ml
